# In patent publication US20110060010A1, “SALTS OF 3-(4-AMINO-1-OXO-1,3-DIHYDRO-ISOINDOL-2-YL)PIPERIDINE-2,6-DIONE AND DERIVATIVES THEREOF, OR POLYMORPHS OF SALTS, PROCESS FOR PREPARING SAME AND USE THEREOF” (TIANJIN HEMAY BIO-TECH CO., LTD, priority 2008, published 2011):
# Read-outs that look alike come from different tables or passages of the source.
# Experiments:
# [1] = physchem
# Experimental: (§1) The sample in each example was scanned with UV spectroscopy in the wavelength range of 190-900 nm. The maximum absorbance was set to 2. All the samples to be determined have the same absorption peak at 304 nm. Although there are other absorption peaks in the range of 205-190 nm, the peak shapes are slightly different and the maximum absorption wavelengths thereof are different. Therefore, the fixed wavelength was determined to be 304 nm in the concentration versus absorbance determination.
# (§2) Therefore, this compound was chosen to plot the concentration versus absorbance standard curve.
# (§3) To a 100 mL volumetric flask were added the sample in Example 7 (279.26 mg) and distilled water. The volume was determined at 100 ml with distilled water. The concentration of the solution is 2.793 mg/mL. To a 50 mL volumetric flask was added 1 mL, 2 mL, 3 mL and 5 mL of the above solution, respectively. The volume was determined at 50 ml with distilled water. The concentrations of these solutions are 0.056 mg/mL, 0.112 mg/mL, 0.167 mg/mL and 0.279 mg/mL, respectively.
# (§4) A small amount of the sample was used to prepare a 5 mL saturated solution. The solution was kept in a constant temperature water bath for 1 hour at 25° C. The supernatant was sampled and diluted to appropriate times according to the range of the standard curve. The concentration was determined by ultraviolet spectrophotometry, and the determined reading was multiplied by the dilution times to obtain the solubility of the sample to be determined.
# [2] = 15° C.
# Experimental: as §1, §2, §3, §4
# [3] = Stability of aqueous solution at room temperature; type: physicochemical; conditions: 17 mg dissolved in 10 mL of deionized water, kept at room temperature for 12 hours
# Experimental: 17 mg of 3-(4-amino-1-oxo-1,3-dihydro-isoindol-2-yl)piperidine-2,6-dione bisulfate tetrahydrate (equivalent to 10 mg of 3-(4-amino-1-oxo-1,3-dihydro-isoindol-2-yl)piperidine-2,6-dione) was dissolved in 10 mL of deionized water and kept at room temperature for 12 hours. The content is higher than 98% of labeled amount.
# [4] = water, 15 °C, thermodynamic from solid
smiles,measurement,setting,value
"Nc1cccc2c1CN(C1CCC(=O)NC1=O)C2=O (stereo not drawn) [Compound (II), in which Y represents H, 3-(4-amino-1-oxo-1,3-dihydro-isoindol-2-yl)piperidine-2,6-dione]",solubility,[1]; [4],0.29 mg/mL
Nc1cccc2c1CN(C1CCC(=O)NC1=O)C2=O.O=S(=O)(O)c1cccc2ccccc12 (stereo not drawn) [Example 4],solubility,[2]; in water,5.60 mg/mL
"Nc1cccc2c1CN(C1CCC(=O)NC1=O)C2=O.O.O.O.O.O=S(=O)(O)O (stereo not drawn) [Example 7, 3-(4-amino-1-oxo-1,3-dihydro-isoindol-2-yl)piperidine-2,6-dione bisulfate tetrahydrate]",solubility at 1 h,"[1]; 15 °C, water, thermodynamic from solid",> 1000 mg/mL
same,solubility,"[1]; water, thermodynamic from solid",> 1000 mg/mL
same,content (of labeled amount),[3],higher than 98 % of labeled amount
Nc1cccc2c1CN(C1CCC(=O)NC1=O)C2=O.O=[N+]([O-])O (stereo not drawn) [Example 10],Water-solubility,[2],3.68 mg/mL
Cl.Nc1cccc2c1CN(C1CCC(=O)NC1=O)C2=O (stereo not drawn) [Example 11],Water-solubility,[2],1.23 mg/mL
"Nc1cccc2c1CN(C1CCC(=O)NC1=O)C2=O (stereo not drawn) [Example 12, 3-(4-amino-1-oxo-1,3-dihydro-isoindol-2-yl)piperidine-2,6-dione]",solubility at 1 h,[1]; [4],0.57 mg/mL
Br.Nc1cccc2c1CN(C1CCC(=O)NC1=O)C2=O (stereo not drawn) [Example 15],Water-solubility,[2],5.5 mg/mL
